Results reported in ChEMBL document CHEMBL5131397, “Discovery and Optimization of Pyrazole Amides as Inhibitors of ELOVL1” (J Med Chem, 2021).
Activity calls are given as the source filed them. The calls are words filed in the database; no cut-off is given here.

Legend:
[1] = target: T1, Serine/threonine-protein kinase TNNI3K (Homo sapiens) (UniProt Q59H18); assay: Inhibition of TNNI3K (unknown origin) at 10 uM
T1 sequence (whole entry): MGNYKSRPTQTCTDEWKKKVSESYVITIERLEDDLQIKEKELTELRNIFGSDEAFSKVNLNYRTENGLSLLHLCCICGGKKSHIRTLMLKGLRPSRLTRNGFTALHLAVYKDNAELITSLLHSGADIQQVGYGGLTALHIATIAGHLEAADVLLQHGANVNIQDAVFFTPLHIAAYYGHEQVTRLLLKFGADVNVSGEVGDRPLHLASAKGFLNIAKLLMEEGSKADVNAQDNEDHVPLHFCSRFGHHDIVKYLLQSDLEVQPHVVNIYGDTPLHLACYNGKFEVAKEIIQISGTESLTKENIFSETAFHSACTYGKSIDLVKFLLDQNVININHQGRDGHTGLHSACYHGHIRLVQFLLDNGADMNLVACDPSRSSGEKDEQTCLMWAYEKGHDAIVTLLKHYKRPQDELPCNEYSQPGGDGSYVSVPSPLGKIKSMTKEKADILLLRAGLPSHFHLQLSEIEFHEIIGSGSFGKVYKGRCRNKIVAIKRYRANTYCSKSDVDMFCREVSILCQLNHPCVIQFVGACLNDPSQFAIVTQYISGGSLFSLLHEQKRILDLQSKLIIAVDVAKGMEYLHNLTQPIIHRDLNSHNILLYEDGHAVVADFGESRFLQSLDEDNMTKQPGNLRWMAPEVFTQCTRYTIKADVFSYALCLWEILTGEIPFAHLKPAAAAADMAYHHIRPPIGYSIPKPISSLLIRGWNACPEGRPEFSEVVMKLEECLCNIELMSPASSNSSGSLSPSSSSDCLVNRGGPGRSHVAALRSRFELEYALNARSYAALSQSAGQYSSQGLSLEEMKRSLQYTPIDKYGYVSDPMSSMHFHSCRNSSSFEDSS

[2] = target: T2, Very long chain fatty acid elongase 1 (Homo sapiens, UniProt Q9BW60); assay: Inhibition of ELOVL1 in human HEK2936E cells assessed as reduction of C26:0 LPC synthesis incubated for 48 hrs by cellular assay; format: cell-based
T2 sequence (Q9BW60 whole entry): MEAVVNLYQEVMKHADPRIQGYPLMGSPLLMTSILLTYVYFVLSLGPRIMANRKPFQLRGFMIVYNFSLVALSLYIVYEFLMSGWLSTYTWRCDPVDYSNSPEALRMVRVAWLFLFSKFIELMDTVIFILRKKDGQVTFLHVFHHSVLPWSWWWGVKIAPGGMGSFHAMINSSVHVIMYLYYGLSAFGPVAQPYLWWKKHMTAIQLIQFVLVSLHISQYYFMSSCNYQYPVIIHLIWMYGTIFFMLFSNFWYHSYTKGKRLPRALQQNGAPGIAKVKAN

[3] = Reduction in C26:0/C16:0 LPC level in ABCD1 knock out mouse CNS at 20 mg/kg, po qd measured after 8 months of dosing by LC-MS/MS analysis; format: functional; set-up: scale not given: the % may be the effect or the level left; settings: 5840 h
[4] = Toxicity in Sprague-Dawley rat assessed as ocular epithelial atrophy at 5 mg/kg/day, po administered for 8 weeks by microscopic observation analysis; format: organism-based; settings: in vivo, 1344 h
[5] = Clearance in Beagle dog at 0.5 mg/kg, iv upto 48 hrs by LC/MS/MS analysis; format: ADME, organism-based, Canis lupus familiaris; settings: in vivo
[6] = test system: Mus musculus; assay: Reduction in C26:0 LPC level in ABCD1 KO mouse blood administered orally qd for 105 days by LC-MS/MS analysis; format: functional, tissue-based; settings: route po, time 105.0 day, DDE = dose-dependent effect
[7] = Reduction in C26:0/C16:0 LPC level in ABCD1 knock out mouse CNS at 8 mg/kg, po qd measured after 6 months of dosing by LC-MS/MS analysis; format: functional; set-up: scale not given: the % may be the effect or the level left; settings: 4380 h
[8] = Toxicity in Sprague-Dawley rat assessed as corneal neovascularization at 5 mg/kg/day, po administered for 8 weeks by macroscopic observation analysis; format: organism-based; settings: in vivo, 1344 h
[9] = Toxicity in Cynomolgus monkey assessed as multifocal gliosis at 20 to 50 mg/kg/day, po administered for 14 days; format: organism-based, Macaca fascicularis; settings: in vivo, 336 h, dose 20-50 mg/kg/day, time 14 day
[10] = Toxicity in Cynomolgus monkey assessed as skin inflammatory infiltrates at 5 to 50 mg/kg/day, po administered for 14 days by microscopic observation analysis; format: organism-based, Macaca fascicularis; settings: in vivo, 336 h, dose 5-50 mg/kg/day, time 14 day
[11] = Toxicity in Cynomolgus monkey assessed as dry and red scaly areas on abdomen at 5 to 50 mg/kg/day, po administered for 14 days by macroscopic observation analysis; format: organism-based, Macaca fascicularis; settings: in vivo, 336 h, dose 5-50 mg/kg/day, time 14 day
[12] = Reduction in C26:0/C16:0 LPC level in ABCD1 knock out mouse CNS at 4 mg/kg, po qd measured after 6 months of dosing by LC-MS/MS analysis; format: functional; set-up: scale not given: the % may be the effect or the level left; settings: 4380 h
[13] = target: T3, Adenosine receptor A3 (Homo sapiens) (UniProt P0DMS8); assay: Inhibition of Adenosine A3 Receptor (unknown origin) at 10 uM
T3 sequence (whole entry): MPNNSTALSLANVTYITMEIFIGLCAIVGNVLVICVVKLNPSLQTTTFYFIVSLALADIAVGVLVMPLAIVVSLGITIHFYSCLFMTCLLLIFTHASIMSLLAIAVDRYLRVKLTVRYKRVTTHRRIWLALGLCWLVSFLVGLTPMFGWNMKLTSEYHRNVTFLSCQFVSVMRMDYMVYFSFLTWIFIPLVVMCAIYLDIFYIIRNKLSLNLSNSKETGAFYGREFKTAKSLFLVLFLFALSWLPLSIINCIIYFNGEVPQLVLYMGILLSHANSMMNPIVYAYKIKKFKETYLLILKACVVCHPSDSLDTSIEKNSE

[14] = Toxicity in Sprague-Dawley rat assessed as ulceration at 5 to 50 mg/kg/day, po administered for 2 to 8 weeks; format: organism-based; settings: in vivo, dose lower 5 mg/kg/day, time lower 2 weeks, dose upper 50 mg/kg/day, time upper 8 weeks
[15] = Toxicity in Cynomolgus monkey assessed as dry and red scaly areas on face at 5 to 50 mg/kg/day, po administered for 14 days by macroscopic observation analysis; format: organism-based, Macaca fascicularis; settings: in vivo, 336 h, dose 5-50 mg/kg/day, time 14 day
[16] = test system: Mus musculus; assay: Reduction of C26:0 LPC level in ABCD1 knock out mouse blood at 1 to 16 mg/kg, po qd measured after 6 days of dosing by LC-MS/MS analysis; format: functional, organism-based; settings: dose 1-16 mg/kg, time 6.0 day
[17] = target: Rho-associated protein kinase 2 (Homo sapiens) (UniProt O75116); assay: Inhibition of ROCK 2 (unknown origin) at 10 uM
[18] = Tmax in Sprague-Dawley rat at 3 mg/kg, po upto 24 hrs by LC/MS/MS analysis; format: ADME, organism-based; settings: in vivo
[19] = Half life in Sprague-Dawley rat at 1 mg/kg, iv upto 48 hrs by LC/MS/MS analysis; format: ADME, organism-based; settings: in vivo
[20] = Reduction in C26:0 LPC level in ELOVL-1 KO clonal human HEK-293T cells in presence of 13C-labeled acetate measured after 48 hrs by mass spectroscopy relative to control; format: functional; set-up: scale not given: the % may be the effect or the level left

Chain of Rho-associated protein kinase 2 (Homo sapiens) (O75116 whole entry, looked up): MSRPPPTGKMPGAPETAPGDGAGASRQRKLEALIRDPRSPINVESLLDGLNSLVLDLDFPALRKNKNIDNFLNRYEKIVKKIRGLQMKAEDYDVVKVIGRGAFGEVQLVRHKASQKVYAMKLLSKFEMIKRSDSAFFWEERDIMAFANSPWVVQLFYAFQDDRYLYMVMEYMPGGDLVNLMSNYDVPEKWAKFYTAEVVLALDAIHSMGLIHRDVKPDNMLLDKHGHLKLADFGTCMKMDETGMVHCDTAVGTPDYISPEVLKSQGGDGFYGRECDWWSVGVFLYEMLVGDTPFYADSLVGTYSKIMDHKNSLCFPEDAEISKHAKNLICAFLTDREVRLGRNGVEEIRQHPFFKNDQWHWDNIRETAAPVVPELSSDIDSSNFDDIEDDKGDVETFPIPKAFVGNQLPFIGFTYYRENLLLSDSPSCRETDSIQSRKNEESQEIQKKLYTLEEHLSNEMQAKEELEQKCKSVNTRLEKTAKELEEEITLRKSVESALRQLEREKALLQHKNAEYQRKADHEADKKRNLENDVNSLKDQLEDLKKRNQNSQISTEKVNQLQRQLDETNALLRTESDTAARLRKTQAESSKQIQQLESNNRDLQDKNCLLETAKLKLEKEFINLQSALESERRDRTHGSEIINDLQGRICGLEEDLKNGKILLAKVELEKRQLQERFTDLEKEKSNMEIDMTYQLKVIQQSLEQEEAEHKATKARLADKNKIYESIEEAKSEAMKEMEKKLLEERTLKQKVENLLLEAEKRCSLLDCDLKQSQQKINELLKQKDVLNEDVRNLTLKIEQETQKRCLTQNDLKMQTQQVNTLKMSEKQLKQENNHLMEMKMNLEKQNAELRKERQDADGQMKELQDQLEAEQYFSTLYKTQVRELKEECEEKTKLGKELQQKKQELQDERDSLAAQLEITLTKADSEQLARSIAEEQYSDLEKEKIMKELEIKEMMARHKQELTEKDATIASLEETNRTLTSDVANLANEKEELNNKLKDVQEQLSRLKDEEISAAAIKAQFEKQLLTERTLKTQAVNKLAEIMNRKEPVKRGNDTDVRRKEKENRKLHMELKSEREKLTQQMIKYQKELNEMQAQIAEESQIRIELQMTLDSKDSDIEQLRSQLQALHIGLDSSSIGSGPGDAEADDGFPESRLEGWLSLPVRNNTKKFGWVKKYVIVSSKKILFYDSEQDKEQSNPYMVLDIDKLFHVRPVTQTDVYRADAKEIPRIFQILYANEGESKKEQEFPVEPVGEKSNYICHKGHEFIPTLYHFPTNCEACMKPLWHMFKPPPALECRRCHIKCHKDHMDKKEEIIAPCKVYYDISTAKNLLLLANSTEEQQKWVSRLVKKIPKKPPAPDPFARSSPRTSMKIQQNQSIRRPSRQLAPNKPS

inhibition [1]: > 50%
IC50 [2]: 0.013 µM
clearance [5]: 1.82 L/h/kg
inhibition [13]: > 50%
inhibition [17]: > 50%
Tmax [18]: 0.4 h
half-life [19]: 3.5 h
Structure (SMILES): O=C(Nc1ccn(-c2ccnc(F)c2)n1)C1(c2ccccc2F)CC1
Activity [3]: 65%
Activity [4]: Toxic
Activity [6]: Dde
Activity [7]: 54%
Activity [8]: Toxic
Activity [9]: Toxic
Activity [10]: Toxic
Activity [11]: Toxic
Activity [12]: 57%
Activity [14]: Toxic
Activity [15]: Toxic
Activity [16]: Active
Activity [20]: 90%
